Test results published in ChEMBL document CHEMBL5346950, “Development of Biaryl-Containing Aldo-Keto Reductase 1C3 (AKR1C3) Inhibitors for Reversing AKR1C3-Mediated Drug Resistance in Cancer Treatment” (J Med Chem, 2023).

How the values were obtained:
[1] = Metabolic stability in liver microsomes (unknown origin) assessed as clearance; format: ADME, Microsome; conditions: read-out: CLH
MCF7 [2] = experiment: Synergistic antiproliferative activity against human MCF7 cells overexpressing AKR1C3 assessed as combination index at 25 uM incubated for 72 hrs in presence of doxorubicin at 200 nM by Chou-Talalay method; format: functional
MCF7 [3] = experiment: Restoration of doxorubicin sensitivity in human MCF7 cells assessed as inhibition of colony formation at 25 uM incubated for 12 days in presence of doxorubicin at 50 nM by crystal violet staining based assay relative to control; format: functional; conditions: time 12 day
[4] = Toxicity in BALB/c nude mouse xenografted with human MCF7 cells expressing AKR1C3 assessed as histopathological changes in spleen at 10 mg/kg, po administered every 2 days for 3 weeks in presence of doxorubicin by H and E staining based analysis; format: organism-based; conditions: in vivo, 504 h
MCF7 [5] = experiment: Synergistic antiproliferative activity against human MCF7 cells overexpressing AKR1C3 assessed as dose reduction index for doxorubicin at 25 uM incubated for 72 hrs in presence of doxorubicin at 100 nM by Chou-Talalay method; format: functional
[6] = AUC (0 to infinity) in Sprague-Dawley rat at 2 mg/kg, iv measured for 5760 mins by LC-MS/MS analysis; format: ADME, organism-based; parameters: time 5760 min, dose 2 mg/kg, route iv; conditions: in vivo
MCF7 [7] = experiment: Synergistic antiproliferative activity against human MCF7 cells overexpressing AKR1C3 assessed as combination index at 25 uM incubated for 72 hrs in presence of doxorubicin at 20 nM by Chou-Talalay method; format: functional
[8] = biological target: T1, Aldo-keto reductase family 1 member C2 (Homo sapiens, UniProt P52895); experiment: Inhibition of human recombinant AKR1C2 transfected in Escherichia coli BL21 (DE3) pLysS competent cells using S-tetralol as substrate assessed as inhibition of NADP+ dependent substrate oxidation incubated for 10 mins by fluorescence microplate reader assay
T1 sequence (P52895 whole entry): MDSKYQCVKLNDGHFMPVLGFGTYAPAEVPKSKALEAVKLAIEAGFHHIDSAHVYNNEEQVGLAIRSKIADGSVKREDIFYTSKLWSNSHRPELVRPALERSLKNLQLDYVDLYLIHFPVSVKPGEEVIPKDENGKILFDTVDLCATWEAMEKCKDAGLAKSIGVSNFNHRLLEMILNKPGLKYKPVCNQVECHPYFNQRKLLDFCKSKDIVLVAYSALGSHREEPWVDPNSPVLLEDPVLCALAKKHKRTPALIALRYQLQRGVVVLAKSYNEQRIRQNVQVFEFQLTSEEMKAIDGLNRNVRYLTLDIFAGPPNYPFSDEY

MCF7 [9] = experiment: Synergistic antiproliferative activity against human MCF7 cells overexpressing AKR1C3 assessed as dose reduction index for doxorubicin at 50 uM incubated for 72 hrs in presence of doxorubicin at 100 nM by Chou-Talalay method; format: functional
[10] = Toxicity in BALB/c nude mouse xenografted with human MCF7 cells expressing AKR1C3 assessed as histopathological changes in kidney at 10 mg/kg, po administered every 2 days for 3 weeks in presence of doxorubicin by H and E staining based analysis; format: organism-based; conditions: in vivo, 504 h
[11] = Toxicity in BALB/c nude mouse xenografted with human MCF7 cells expressing AKR1C3 assessed as histopathological changes in heart at 10 mg/kg, po administered every 2 days for 3 weeks in presence of doxorubicin by H and E staining based analysis; format: organism-based; conditions: in vivo, 504 h
MCF7 [12] = experiment: Synergistic antiproliferative activity against human MCF7 cells overexpressing AKR1C3 assessed as dose reduction index for doxorubicin at 10 uM incubated for 72 hrs in presence of doxorubicin at 200 nM by Chou-Talalay method; format: functional
MCF7 [13] = experiment: Synergistic antiproliferative activity against human MCF7 cells overexpressing AKR1C3 assessed as dose reduction index for doxorubicin at 10 uM incubated for 72 hrs in presence of doxorubicin at 100 nM by Chou-Talalay method; format: functional
MCF7 [14] = experiment: Synergistic antiproliferative activity against human MCF7 cells overexpressing AKR1C3 assessed as combination index at 50 uM incubated for 72 hrs in presence of doxorubicin at 50 nM by Chou-Talalay method; format: functional
MCF7 [15] = experiment: Synergistic antiproliferative activity against human MCF7 cells overexpressing AKR1C3 assessed as dose reduction index for doxorubicin at 10 uM incubated for 72 hrs in presence of doxorubicin at 50 nM by Chou-Talalay method; format: functional
[16] = Toxicity in BALB/c nude mouse xenografted with human MCF7 cells expressing AKR1C3 assessed as histopathological changes in spleen at 10 mg/kg, po administered every 2 days for 3 weeks by H and E staining based analysis; format: organism-based; conditions: in vivo, 504 h
[17] = Tmax in Sprague-Dawley rat at 10 mg/kg, IG measured for 5760 mins by LC-MS/MS analysis; format: ADME, organism-based; conditions: in vivo, po
[18] = biological target: Aldo-keto reductase family 1 member B1 (Homo sapiens, UniProt P15121); experiment: Inhibition of AKR1B1 (unknown origin) transfected in Escherichia coli BL21 (DE3) pLysS competent cells using pyridine-3-aldehyde as substrate assessed as inhibition of NADP+ dependent substrate oxidation incubated for 10 mins
[19] = MRT (0 to infinity) in Sprague-Dawley rat at 10 mg/kg, IG measured for 5760 mins by LC-MS/MS analysis; format: ADME, organism-based; conditions: in vivo, po
MCF7 [20] = experiment: Synergistic antiproliferative activity against human MCF7 cells overexpressing AKR1C3 assessed as combination index at 50 uM incubated for 72 hrs in presence of doxorubicin at 20 nM by Chou-Talalay method; format: functional
MCF7 [21] = experiment: Synergistic antitumor activity against human MCF7 cells expressing AKR1C3 xenografted in BALB/c nude mouse assessed as tumor growth inhibition at 10 mg/kg, po administered every 2 days for 3 weeks in presence of doxorubicin and measured every 3 days by caliper analysis relative to control; format: functional
MCF7 [22] = experiment: Synergistic antiproliferative activity against human MCF7 cells overexpressing AKR1C3 assessed as dose reduction index for doxorubicin at 50 uM incubated for 72 hrs in presence of doxorubicin at 200 nM by Chou-Talalay method; format: functional
[23] = AUC (0 to t) in Sprague-Dawley rat at 10 mg/kg, IG measured for 5760 mins by LC-MS/MS analysis; format: ADME, organism-based; parameters: time 5760 min, dose 10 mg/kg, route ig; conditions: in vivo, po
MCF7 [24] = experiment: Synergistic antiproliferative activity against human MCF7 cells overexpressing AKR1C3 assessed as combination index at 50 uM incubated for 72 hrs in presence of doxorubicin at 100 nM by Chou-Talalay method; format: functional
[25] = Toxicity in BALB/c nude mouse xenografted with human MCF7 cells expressing AKR1C3 assessed as histopathological changes in lungs at 10 mg/kg, po administered every 2 days for 3 weeks by H and E staining based analysis; format: organism-based; conditions: in vivo, 504 h
MCF7 [26] = experiment: Synergistic antiproliferative activity against human MCF7 cells overexpressing AKR1C3 assessed as dose reduction index for doxorubicin at 25 uM incubated for 72 hrs in presence of doxorubicin at 200 nM by Chou-Talalay method; format: functional
[27] = Octanol-water partition coefficient, logP of the compound; format: physicochemical
[28] = Toxicity in BALB/c nude mouse xenografted with human MCF7 cells expressing AKR1C3 assessed as reduction in body weight at 10 mg/kg, po administered every 2 days for 3 weeks and measured every 3 days; format: organism-based; conditions: in vivo, 504 h
MCF7 [29] = experiment: Synergistic antiproliferative activity against human MCF7 cells overexpressing AKR1C3 assessed as dose reduction index for doxorubicin at 25 uM incubated for 72 hrs in presence of doxorubicin at 50 nM by Chou-Talalay method; format: functional

In the case of `O=C(O)C1(c2ccc(-c3cc(Cl)cc(Cl)c3)c(F)c2)CC1`, the CLint scaled [1] is reported as 4.17 mL/min/kg, the CI (MCF7 [2]) is reported as 0.274 and the “inhibition (INH)” value (MCF7 [3]) is reported as 100%. The Activity [4] was “Non-Toxic”, the Activity_index (MCF7 [5]) was 5.813 and the AUC(0-inf) [6] was 654 ng·h/mL. For the same compound, the CI (MCF7 [7]) was 0.276, the IC50 [8] was 1530 nM and the Activity_index (MCF7 [9]) was 15.324. For the same compound, the Activity [10] was “Non-Toxic”, the Activity [11] was “Non-Toxic” and the Activity_index (MCF7 [12]) was 3.821. The Activity_index (MCF7 [13]) was 4.423, the CI (MCF7 [14]) was 0.239 and the Activity_index (MCF7 [15]) was 7.165. For the same compound, the Activity [16] was “Non-Toxic”, the Tmax [17] was 10 h and the IC50 [18] was > 10000 nM. For the same compound, the MRT inf [19] was 36.6 h, the CI (MCF7 [20]) was 0.246 and the TGI (MCF7 [21]) was 87.46%. The Activity_index (MCF7 [22]) was 13.929, the AUC(0-t) at 96 h [23] was 1480 ng·h/mL and the CI (MCF7 [24]) was 0.214. For the same compound, the Activity [25] was “Non-Toxic”, the Activity_index (MCF7 [26]) was 5.636 and the logP [27] was 1. The Activity [28] was “Non-Toxic” and the Activity_index (MCF7 [29]) was 22.177.
